# Data taken from ChEMBL document CHEMBL1201862, “PubChem BioAssay data set” (2004).
#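 Growth conditions: 96-well plates. Treatment: test compound, 48 hours, 5 concentrations. Analysis: linear interpolation between bracketing concentrations; unreached endpoints set to highest concentration. Abbreviation: GI50, concentration required for 50% inhibition of growth.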 The source made the active and inactive calls. Cut-off read from the data, not from the text of the source: active = GI50 up to about 1.1 µM and inactive = higher.
# How the values were obtained:
# Assay in all cases: NCI anticancer screen, dose series, 48 h
# [1] = system: OVCAR-5
# [2] = system: HCT-15
# [3] = system: SK-OV-3
# [4] = system: LOX IMVI
# [5] = system: KM12
# [6] = system: HCT-116
# [7] = system: K562
# [8] = system: RXF 393
# [9] = system: NCI-H522
# [10] = system: EKVX
# [11] = system: HT-29
# [12] = system: HOP-92
# [13] = system: NCI-H226
# [14] = system: SN12C
# [15] = system: RPMI-8226
# [16] = system: UACC-62
# [17] = system: OVCAR-3
SMILES,GI50 [1],GI50 [2],GI50 [3],GI50 [4],GI50 [5],GI50 [6],GI50 [7],GI50 [8],GI50 [9],GI50 [10],GI50 [11],GI50 [12],GI50 [13],GI50 [14],GI50 [15],GI50 [16],GI50 [17]
CCOC(=O)C1(C)C2=CC=C(O2)C(C)(C)C2=CC=C(O2)C(C)(C)C2=CC=C(O2)C(C)(C)C2=CC=C1O2,> 100 µM (inactive),> 100 µM,> 100 µM (inactive),> 100 µM (inactive),> 100 µM (inactive),46.9 µM (inactive),> 100 µM (inactive),> 100 µM (inactive),> 100 µM (inactive),> 100 µM (inactive),> 100 µM (inactive),36.5 µM (inactive),> 100 µM (inactive),> 100 µM (inactive),–,–,–
CCOc1ccc(/N=C(/NC(=O)c2ccccc2)SC)cc1,> 100 µM (inactive),> 100 µM,> 100 µM (inactive),> 100 µM (inactive),–,> 100 µM (inactive),> 100 µM (inactive),> 100 µM (inactive),–,> 100 µM (inactive),> 100 µM (inactive),> 100 µM (inactive),> 100 µM (inactive),> 100 µM (inactive),> 100 µM (inactive),> 100 µM (inactive),> 100 µM (inactive)
Oc1cc(C2OCCCO2)cc(O)c1O,> 100 µM (inactive),> 100 µM,> 100 µM (inactive),–,> 100 µM (inactive),> 100 µM (inactive),> 100 µM (inactive),–,> 100 µM (inactive),> 100 µM (inactive),> 100 µM (inactive),–,> 100 µM (inactive),> 100 µM (inactive),> 100 µM (inactive),> 100 µM (inactive),> 100 µM (inactive)
O=c1cnn2c(n1)sc1ccc3ccccc3c12,> 100 µM (inactive),> 100 µM,> 100 µM (inactive),76.6 µM (inactive),> 100 µM (inactive),87.9 µM (inactive),> 100 µM (inactive),> 100 µM (inactive),–,25.1 µM (inactive),> 100 µM (inactive),> 100 µM (inactive),> 100 µM (inactive),> 100 µM (inactive),> 100 µM (inactive),> 100 µM (inactive),> 100 µM (inactive)
CCOC(=O)NN(C(=O)OCC)C(C(=O)c1ccc(Cl)cc1)=C1NCCN1,> 100 µM (inactive),–,> 100 µM (inactive),> 100 µM (inactive),> 100 µM (inactive),> 100 µM (inactive),> 100 µM (inactive),> 100 µM (inactive),> 100 µM (inactive),> 100 µM (inactive),> 100 µM (inactive),> 100 µM (inactive),> 100 µM (inactive),> 100 µM (inactive),–,> 100 µM (inactive),> 100 µM (inactive)
COc1cc(/C=C\c2ccccn2)cc(OC)c1OC,> 100 µM (inactive),78.3 µM,–,64 µM (inactive),63.8 µM (inactive),> 100 µM (inactive),32.1 µM (inactive),> 100 µM (inactive),70 µM (inactive),48.5 µM (inactive),46.3 µM (inactive),16.4 µM (inactive),> 100 µM (inactive),> 100 µM (inactive),30.6 µM (inactive),60 µM (inactive),> 100 µM (inactive)
O=C(NC1C=Nc2ccccc2NC1=O)c1ccccc1Cl (configuration not stated),> 100 µM (inactive),33.7 µM,> 100 µM (inactive),18.2 µM (inactive),50.7 µM (inactive),39.1 µM (inactive),11.1 µM (inactive),13 µM (inactive),20.1 µM (inactive),74.8 µM (inactive),55.7 µM (inactive),31.4 µM (inactive),94 µM (inactive),64.4 µM (inactive),–,33.6 µM (inactive),28.4 µM (inactive)
O=C(CC(=O)Nc1ccc(Cl)cc1)NNCC(=O)Nc1nc(-c2ccccc2)cs1,–,–,> 100 µM (inactive),> 100 µM (inactive),> 100 µM (inactive),> 100 µM (inactive),72.4 µM (inactive),> 100 µM (inactive),> 100 µM (inactive),> 100 µM (inactive),> 100 µM (inactive),–,> 100 µM (inactive),> 100 µM (inactive),> 100 µM (inactive),47.5 µM (inactive),> 100 µM (inactive)
C[Si](C)(C)C(CCCCSc1ccccc1)(Sc1ccccc1)Sc1ccccc1,–,> 100 µM,> 100 µM (inactive),> 100 µM (inactive),> 100 µM (inactive),> 100 µM (inactive),> 100 µM (inactive),> 100 µM (inactive),–,> 100 µM (inactive),–,73.6 µM (inactive),–,> 100 µM (inactive),> 100 µM (inactive),36.1 µM (inactive),–
Cc1ccc(C)c2sc3cc(=O)ccc-3nc12,30.8 µM (inactive),29.4 µM,> 100 µM (inactive),–,33.8 µM (inactive),54.3 µM (inactive),16 µM (inactive),–,7.83 µM (inactive),37.2 µM (inactive),44 µM (inactive),28.1 µM (inactive),75.2 µM (inactive),57.7 µM (inactive),–,17.5 µM (inactive),43.3 µM (inactive)
CCOC(=O)NC(=O)c1cn(-c2ccc(CCOC(=O)NCCCCCCNC(=O)OCCc3ccc(-n4c(=O)[nH]cc(C(=O)NC(=O)OCC)c4=O)cc3)cc2)c(=O)[nH]c1=O,> 100 µM (inactive),> 100 µM,47.6 µM (inactive),56.6 µM (inactive),> 100 µM (inactive),> 100 µM (inactive),> 100 µM (inactive),> 100 µM (inactive),22.4 µM (inactive),53.2 µM (inactive),> 100 µM (inactive),> 72.4 µM (inactive),–,> 100 µM (inactive),> 100 µM (inactive),24.1 µM (inactive),> 100 µM (inactive)
CCOC(=O)C1=C(Nc2ccc(Br)cc2)OC/C1=N\NC(=O)c1ccccc1O,46.1 µM (inactive),11.7 µM,12.8 µM (inactive),5.37 µM (inactive),21.5 µM (inactive),10.1 µM (inactive),7.06 µM (inactive),1.29 µM (inactive),7.98 µM (inactive),18.8 µM (inactive),40.4 µM (inactive),–,38.9 µM (inactive),52.4 µM (inactive),15 µM (inactive),2.67 µM (inactive),21.4 µM (inactive)
C#CCN(C(=O)C(F)(F)F)c1ccc(C(=O)c2ccc(N(CC#C)C(=O)C(F)(F)F)cc2)cc1,49.9 µM (inactive),24.6 µM,–,–,32.2 µM (inactive),34.5 µM (inactive),21 µM (inactive),35.3 µM (inactive),14.9 µM (inactive),61 µM (inactive),19.5 µM (inactive),34.8 µM (inactive),–,34.9 µM (inactive),15.6 µM (inactive),21.6 µM (inactive),33.1 µM (inactive)
O=[N+]([O-])c1ccc(/C=N/C2CCCCC2)cc1,> 100 µM (inactive),> 100 µM,> 100 µM (inactive),> 100 µM (inactive),> 100 µM (inactive),> 100 µM (inactive),> 100 µM (inactive),> 100 µM (inactive),–,> 100 µM (inactive),> 100 µM (inactive),> 100 µM (inactive),> 100 µM (inactive),> 100 µM (inactive),–,> 100 µM (inactive),> 100 µM (inactive)
